{"source": "patent EP0733369A1", "about": "“Protease inhibitors, a DNA construct for the expression of a protease and a process for measuring proteases and/or protease inhibitors” (Stichting REGA V.Z.W., priority 1995, dated 1996)", "key": {"[1]": {"molecular_target": "u-PA (Homo sapiens, UniProt P00749)", "assay": "ID50 on homogeneous enzyme", "assay_type": "biochemical"}, "[2]": {"molecular_target": "t-PA (Homo sapiens, UniProt P00750)", "sequence (P00750 36-562, species assumed)": "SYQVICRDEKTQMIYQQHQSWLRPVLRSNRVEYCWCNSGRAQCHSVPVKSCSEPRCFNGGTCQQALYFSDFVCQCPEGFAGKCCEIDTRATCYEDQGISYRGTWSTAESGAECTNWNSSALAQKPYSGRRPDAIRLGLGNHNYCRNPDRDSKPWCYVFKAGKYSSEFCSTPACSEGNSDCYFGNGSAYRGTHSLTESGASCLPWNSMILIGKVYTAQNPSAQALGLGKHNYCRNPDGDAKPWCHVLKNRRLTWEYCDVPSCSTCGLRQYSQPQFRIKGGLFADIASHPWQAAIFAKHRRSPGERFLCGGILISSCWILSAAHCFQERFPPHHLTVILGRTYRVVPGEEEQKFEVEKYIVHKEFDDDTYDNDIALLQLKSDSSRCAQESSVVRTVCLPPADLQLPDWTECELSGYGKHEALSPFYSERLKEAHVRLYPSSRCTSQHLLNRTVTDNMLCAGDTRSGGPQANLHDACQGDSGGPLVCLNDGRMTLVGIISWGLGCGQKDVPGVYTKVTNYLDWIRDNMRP", "assay": "ID50 on homogeneous enzyme", "assay_type": "biochemical"}, "[3]": {"molecular_target": "T1, Gelatinase B (Homo sapiens, UniProt P14780)", "assay": "ID50 on homogeneous enzyme", "assay_type": "biochemical"}, "[4]": {"molecular_target": "T2, Gelatinase A (Homo sapiens, UniProt P08253)", "T2 construct": "from tissue; host or cells: cerebrospinal fluid of patients with multiple sclerosis or optic neuritis", "T2 sequence (P08253 110-660)": "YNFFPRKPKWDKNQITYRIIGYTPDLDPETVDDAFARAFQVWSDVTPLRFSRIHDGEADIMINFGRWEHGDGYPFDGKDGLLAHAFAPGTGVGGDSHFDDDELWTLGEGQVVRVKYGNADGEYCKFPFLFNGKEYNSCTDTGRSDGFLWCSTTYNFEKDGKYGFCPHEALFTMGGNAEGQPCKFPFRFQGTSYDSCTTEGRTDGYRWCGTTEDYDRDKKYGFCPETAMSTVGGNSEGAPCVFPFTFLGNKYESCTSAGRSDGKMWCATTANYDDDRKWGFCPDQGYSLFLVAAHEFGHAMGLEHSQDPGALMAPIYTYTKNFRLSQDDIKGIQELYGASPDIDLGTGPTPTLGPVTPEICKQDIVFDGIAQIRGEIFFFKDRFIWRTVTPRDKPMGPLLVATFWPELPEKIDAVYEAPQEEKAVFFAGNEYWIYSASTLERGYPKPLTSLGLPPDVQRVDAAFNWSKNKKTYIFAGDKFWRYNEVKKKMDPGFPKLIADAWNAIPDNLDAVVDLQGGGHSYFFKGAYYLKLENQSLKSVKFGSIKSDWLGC", "assay": "zymography of cerebrospinal fluid of MS / optic neuritis patients with inhibitor", "assay_type": "biochemical", "conditions": "CSF of MS patients, increasing concentrations", "procedure": "(§1) Quantitative zymography was performed as described (7,8). Briefly, 40 µl of loading buffer was added to 40 µl of each sample and applied on 7.5% polyacrylamide gels which had been co-polymerised with 0.1% (w/v) gelatin. Stacking gels contained 5% polyacrylamide. The gels were run at 4°C for 16h at 90V. The gels were then incubated in washing buffer (50 mM Tris-HCl pH 7.5, 10mM CaCl2, O.O2% (W/V) NaN3, 2.5% (v/v) Triton X-100) at room temperature, 2x20 min to remove sodium dodecyl sulfate and overnight in developing buffer (50 mM Tris-HCl pH 7.5, 10mM CaCl2, O.O2% (w/v) NaN3, 1% (v/v) Triton X-100) at 37°C. […] The sites of gelatinase activity appeared as unstained bands on a blue background and were quantified by computerised image analysis through scanning densitometry with a PDI scanner (Pharmacia, Belgium) and the PDI software package. […]\n(§2) Similar results were obtained when pure preparations of gelatinase B were tested or when gelatinase B was measured in the presence of D-penicillamine in body fluids or cell supernatants.\n(§3) Figure 13. […] Gelatinase A (---) and B(_) activities in the CSF were measured by zymography in the absence or the presence of increasing concentrations of D-penicillamine. The scanning indices for each patient are calculated at the residual activity in the presence of inhibitor versus the activity without inhibitor. […]"}, "[5]": {"test_system": "human monocytic cell line THP-1", "assay": "gelatinase B protein (zymography) and mRNA (northern blot) production in THP-1 cultures", "assay_type": "cell-based", "conditions": "THP-1, LPS 1µg/ml, RA 100nM or untreated; D-penicillamine 50 µg/ml; 16 h", "procedure": "Figure 14. […] Cultures of the human monocytic cell line THP-1 were stimulated with lipopolysaccharide (LPS, 1µg/ml), retinoic acid (RA, 100nM) or left untreated (CO) in the presence or absence of D-penicillamine (DPEN, 50 µg/ml). After 16 h total RNA was extracted and gelatinase B mRNA was measured by northern blot analysis with a human probe (41) (a). Gelatinase B protein in the cell culture fluids was assayed by zymographic analysis on gelatin substrate gels (b)."}, "[6]": {"test_system": "chronic relapsing EAE", "assay": "chronic relapsing EAE in Biozzi AB/H mice", "assay_type": "in vivo", "conditions": "750 µg three times weekly from day 22 onwards"}, "[7]": {"test_system": "hyperacute experimental allergic encephalomyelitis (EAE)", "assay": "acute (hyperacute) EAE in SJL mice", "conditions": "intraperitoneal, equivalent of 27 to 375 µg per mouse daily", "description": "In both hind paws 50µl of this emulsion was injected on day 0. On day 0 and 2, 50µl B.pertussis (200x10^9 bacteria/ml) were injected intraveneously. […] The control group received injections with 0.9% NaCl, used as excipiens. The animals were daily monitored and the disease and mortality were scored.)."}, "[8]": {"molecular_target": "T1, Gelatinase B", "assay": "zymography of cerebrospinal fluid of MS / optic neuritis patients with inhibitor", "assay_type": "biochemical", "parameters": "from tissue; host or cells: cerebrospinal fluid of patients with multiple sclerosis or optic neuritis", "conditions": "CSF of MS patients, increasing concentrations", "procedure": "as §1, §2, §3"}, "[9]": {"molecular_target": "T3, gelatinase B from neutrophils (Homo sapiens, UniProt P14780)", "T3 sequence (P14780 94-707)": "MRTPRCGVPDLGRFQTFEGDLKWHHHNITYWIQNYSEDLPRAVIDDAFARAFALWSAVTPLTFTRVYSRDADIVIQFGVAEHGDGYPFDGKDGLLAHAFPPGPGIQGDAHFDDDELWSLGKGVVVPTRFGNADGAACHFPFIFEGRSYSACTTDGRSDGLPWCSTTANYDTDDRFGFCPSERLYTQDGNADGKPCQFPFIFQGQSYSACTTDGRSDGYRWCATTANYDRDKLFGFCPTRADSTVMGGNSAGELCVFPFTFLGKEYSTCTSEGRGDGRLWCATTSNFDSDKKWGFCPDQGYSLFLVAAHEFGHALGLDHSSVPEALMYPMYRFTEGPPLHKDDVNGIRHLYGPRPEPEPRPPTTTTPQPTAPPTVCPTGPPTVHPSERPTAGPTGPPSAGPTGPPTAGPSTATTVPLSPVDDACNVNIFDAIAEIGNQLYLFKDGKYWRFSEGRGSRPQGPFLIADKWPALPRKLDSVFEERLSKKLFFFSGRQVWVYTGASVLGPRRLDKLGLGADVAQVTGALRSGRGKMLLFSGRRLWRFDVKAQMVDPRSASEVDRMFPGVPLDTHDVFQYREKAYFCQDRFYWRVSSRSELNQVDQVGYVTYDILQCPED", "assay": "gelatinase (inhibitor) microtiter plate assay with biotinylated gelatin", "assay_type": "biochemical", "parameters": "endogenous in cells; host or cells: human neutrophils stimulated with lipopolysaccharide; conditioned medium", "conditions": "qualitative statements", "procedure": "The measurement of gelatinase activity was based on the detection of non-degraded biotinylated gelatin with a streptavidin-peroxidase conjugate. This test is based on the biotin-avidin method described by Sorbi et al. (25) but modified to a one plate assay (schematically represented in Fig. 1.). Gelatin (1mg/ml) was dissolved in 0.1 M sodium bicarbonate pH 8.3 by heating to 40°C. Biotin-N-hydroxysuccinimide ester was dissolved in dimethylsulfoxide (Me2SO) and was added to the gelatin in a 15-fold molar excess. The mixture was allowed to react overnight at 4°C and the biotinylated gelatin was then dialyzed against phosphate buffered saline (PBS). Neutrophil granulocyte (Neu) medium was collected from human neutrophils after stimulation with lipopolysaccharide (1µg/ml) overnight at 37°C in Minimal Essential Medium. Cells were removed by 10 min centrifugation at 1000 g. Purified gelatinase was obtained by one-step affinity chromatography of neutrophil medium on a gelatin-sepharose column as described (8).\nModified flat bottom 96-well ELISA plates were coated overnight with 0.5 µg/ml avidin in distilled water. The plates were then blocked with 0.3% bovine serum albumin (BSA, Sigma) in PBS for 1 hour at 37°C. Biotinylated gelatin was diluted to 50 µg/ml and 100µl was added to the avidin-coated wells. After incubation for one hour at 20°C, the plate was rinsed with PBS. Medium containing the secreted gelatinases from human neutrophils (dilution range 1/3-1/3^11) and the inhibitors were diluted in incubation buffer (50 mM Tris-HCl pH 7.5, 10 mM CaCl2, 0.02% (W/V) NaN3, 1% (V/V) Triton X-100) and 100 µl of each were mixed. 190 µl of the mixture was added to the gelatin-coated plates and allowed to digest the gelatin overnight at 37°C. The plates were then washed with PBS and each well was incubated with 100 µl peroxidase-conjugated-streptavidin at a 1:2000 dilution for 1 hour at 37°C. After rinsing the plate, the ABTS substrate was added (0.5 mg/ml solution containing 0.1 M citric acid, 0.2 M Na2HPO4, pH 4.3, 0.07 µl/ml 30% H2O2) and the optical density was read at 405 nm after 10 min. incubation at room temperature. Additional information on published test systems used here for comparison.\nGelatin is biotinylated and bound to avidin-coated microtiter plates. By addition of gelatinases the number of free biotin groups decreases and proportionally less streptavidin-peroxidase is bound to the residual substrate. Bound streptavidin-peroxidase activity is measured spectrophotometrically by reaction of peroxide with ABTS. Inhibition of gelatinase is obtained by the addition of inhibitor to a known amount of gelatinase prior to application to the plates. The peroxidase activity increases proportionally with the inhibitory activity.\nPlates were first coated with 10µg/ml avidin and 50µg/ml biotinylated gelatin (theoretically saturating the avidin binding sites). As the sensitivity of the assay is dependent on the detection of the minimal amount of degraded biotinylated gelatin, we investigated wether decreasing the amount of biotin-gelatin (50 µg/ml-23 ng/ml) bound to the avidin-coated (10µg/ml) plate increased the sensitivity of the assay. […] Thus it was verified whether a decrease in the avidin coating could make the assay more sensitive (Fig. 2). […] In all further examples plates were coated with 0.5 µg/ml avidin and 50 µg/ml gelatin-biotin.\nThe titration curves of gelatinase inhibition were always related to a blanc curve and this for enzyme concentrations within the slope of the curve (vertical dotted lines Fig. 3). The decrease in enzyme activity to which the inhibitor-incubated sample corresponded was defined as the inhibition factor (IF)."}, "[10]": {"molecular_target": "T3, gelatinase B from neutrophils", "assay": "zymography inhibition assay, inhibitor in developing buffer", "assay_type": "biochemical", "parameters": "The 92 kDa neutrophil gelatinase is indicated with an arrowhead; endogenous in cells; host or cells: human neutrophils; purified from conditioned medium on gelatin-Sepharose", "conditions": "qualitative statements", "description": "Quantitative zymography was performed as described (7,8). Briefly, 40 µl of loading buffer was added to 40 µl of each sample and applied on 7.5% polyacrylamide gels which had been co-polymerised with 0.1% (w/v) gelatin. Stacking gels contained 5% polyacrylamide. The gels were run at 4°C for 16h at 90V. The gels were then incubated in washing buffer (50 mM Tris-HCl pH 7.5, 10mM CaCl2, O.O2% (W/V) NaN3, 2.5% (v/v) Triton X-100) at room temperature, 2x20 min to remove sodium dodecyl sulfate and overnight in developing buffer (50 mM Tris-HCl pH 7.5, 10mM CaCl2, O.O2% (w/v) NaN3, 1% (v/v) Triton X-100) at 37°C. The gels were then stained in Coomassie brilliant blue R-250 and destained in methanol/acetic acid. The sites of gelatinase activity appeared as unstained bands on a blue background and were quantified by computerised image analysis through scanning densitometry with a PDI scanner (Pharmacia, Belgium) and the PDI software package. For inhibition experiments, the inhibitors were dissolved in the developing buffer at the appropriate concentration. […] The enzyme activity was developed by staining of the substrate with Coomassie blue and quantification of the substrate digestion by scanning densitometry. […] The enzyme activity was developed by staining of the substrate with Coomassie blue and quantification of the substrate digestion by scanning densitometry. […]"}}, "note": "pIC50: −log10 of the molar value. “Also recorded” adds a separate entry of the source.", "data": [{"smiles": "CC(C)(S)[C@@H](N)C(=O)O", "note": "[D-penicillamine]", "values": [{"measurement": "pIC50", "setting": "[1]", "value": 4.03}, {"measurement": "pIC50", "setting": "[2]", "value": 3.92}, {"measurement": "pIC50", "setting": "[3]", "value": 4.70}, {"measurement": "inhibition of Gelatinase A in cerebrospinal fluid (in words)", "setting": "[4]", "value": "inhibited in a dose-dependent way"}, {"measurement": "spontaneous and induced levels of gelatinase B mRNA", "setting": "[5]", "value": "remained constant"}, {"measurement": "spontaneous and induced levels of gelatinase B protein", "setting": "[5]", "value": "remained constant"}, {"measurement": "disease recurrencies in chronic relapsing EAE", "setting": "[6]", "value": "abrogated the exacerbations; also recorded: abrogated the disease recurrencies"}, {"measurement": "development of disease symptoms in acute EAE", "setting": "[7]", "value": "complete blockage; also recorded: inhibits in a dose-dependent way the development of disease symptoms"}, {"measurement": "inhibition of Gelatinase B in cerebrospinal fluid (in words)", "setting": "[8]", "value": "inhibited in a dose-dependent way"}, {"measurement": "gelatinase B inhibitory activity in the plate assay (in words)", "setting": "[9]", "value": "inhibitor of gelatinase B"}, {"measurement": "inhibition of gelatinase B on zymography (in words)", "setting": "[10]", "value": "inhibitor of gelatinase B"}]}]}
